Reference: ChEMBL document CHEMBL3046932, “Synthesis, 5-HT1A and 5-HT2A receptor affinity and QSAR study of 1-benzhydryl-piperazine derivatives with xanthine moiety at N4” (Med Chem Res, 2012)

Experiments:
[1] = molecular target: 5-hydroxytryptamine receptor 2A (Rattus norvegicus, UniProt P14842); experiment: Displacement of [3H]Ketanserin from 5-HT2A receptor in rat cortex
[2] = molecular target: T1, 5-hydroxytryptamine receptor 1A (Rattus norvegicus, UniProt P19327); experiment: Displacement of [3H]8-OH-DPAT from 5-HT1A receptor in Rattus norvegicus (rat) hippocampus
T1 sequence (P19327 whole entry): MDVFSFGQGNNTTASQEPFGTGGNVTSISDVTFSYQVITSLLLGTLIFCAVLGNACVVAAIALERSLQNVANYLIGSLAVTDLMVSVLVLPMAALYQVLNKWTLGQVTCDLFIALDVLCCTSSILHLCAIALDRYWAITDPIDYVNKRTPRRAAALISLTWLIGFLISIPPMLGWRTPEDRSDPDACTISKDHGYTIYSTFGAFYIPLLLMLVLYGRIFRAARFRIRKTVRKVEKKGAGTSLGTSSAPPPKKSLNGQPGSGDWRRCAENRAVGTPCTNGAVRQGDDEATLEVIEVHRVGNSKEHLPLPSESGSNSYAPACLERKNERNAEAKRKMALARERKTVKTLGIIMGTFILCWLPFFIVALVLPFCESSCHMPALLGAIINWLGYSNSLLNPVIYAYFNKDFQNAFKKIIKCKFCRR

[3] = molecular target: T2, 5-hydroxytryptamine receptor 2A (Homo sapiens, UniProt P28223); experiment: Binding affinity to 5-HT2A (unknown origin)
[4] = molecular target: T3, 5-hydroxytryptamine receptor 1A (Homo sapiens, UniProt P08908); experiment: Binding affinity to 5-HT1A (unknown origin)
T3 sequence (P08908 whole entry): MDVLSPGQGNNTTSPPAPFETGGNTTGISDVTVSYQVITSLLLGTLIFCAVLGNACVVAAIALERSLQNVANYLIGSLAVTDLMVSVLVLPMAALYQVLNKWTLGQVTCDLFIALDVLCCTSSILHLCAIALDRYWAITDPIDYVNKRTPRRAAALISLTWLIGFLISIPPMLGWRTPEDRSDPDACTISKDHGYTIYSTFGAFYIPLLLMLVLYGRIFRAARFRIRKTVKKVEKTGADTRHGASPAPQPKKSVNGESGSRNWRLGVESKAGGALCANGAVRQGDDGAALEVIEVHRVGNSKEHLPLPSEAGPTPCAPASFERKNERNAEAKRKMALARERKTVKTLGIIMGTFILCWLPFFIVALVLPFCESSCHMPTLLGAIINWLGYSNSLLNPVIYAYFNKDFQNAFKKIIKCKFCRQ

[5] = Selectivity index, ratio of Ki for rat 5-HT1A to Ki for 5-HT2A (unknown origin)
[6] = molecular target: T2, 5-hydroxytryptamine receptor 2A; experiment: Displacement of [3H]Ketanserin from 5-HT2A receptor (unknown origin)

Sequence of 5-hydroxytryptamine receptor 2A (Rattus norvegicus, UniProt P14842) (P14842 whole entry): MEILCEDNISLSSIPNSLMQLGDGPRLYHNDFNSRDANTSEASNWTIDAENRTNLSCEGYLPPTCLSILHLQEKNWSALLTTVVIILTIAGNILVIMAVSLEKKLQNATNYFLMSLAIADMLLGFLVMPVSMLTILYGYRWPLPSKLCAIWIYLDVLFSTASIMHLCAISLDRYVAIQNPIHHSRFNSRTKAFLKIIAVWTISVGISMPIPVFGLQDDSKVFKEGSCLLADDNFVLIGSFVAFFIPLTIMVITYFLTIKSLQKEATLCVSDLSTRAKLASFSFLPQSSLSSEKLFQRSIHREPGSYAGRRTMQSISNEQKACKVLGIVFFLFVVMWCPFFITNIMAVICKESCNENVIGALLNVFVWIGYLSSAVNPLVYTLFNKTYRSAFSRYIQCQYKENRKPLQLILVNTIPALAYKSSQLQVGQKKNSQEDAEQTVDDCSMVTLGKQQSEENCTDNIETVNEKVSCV
T2 sequence (P28223 whole entry): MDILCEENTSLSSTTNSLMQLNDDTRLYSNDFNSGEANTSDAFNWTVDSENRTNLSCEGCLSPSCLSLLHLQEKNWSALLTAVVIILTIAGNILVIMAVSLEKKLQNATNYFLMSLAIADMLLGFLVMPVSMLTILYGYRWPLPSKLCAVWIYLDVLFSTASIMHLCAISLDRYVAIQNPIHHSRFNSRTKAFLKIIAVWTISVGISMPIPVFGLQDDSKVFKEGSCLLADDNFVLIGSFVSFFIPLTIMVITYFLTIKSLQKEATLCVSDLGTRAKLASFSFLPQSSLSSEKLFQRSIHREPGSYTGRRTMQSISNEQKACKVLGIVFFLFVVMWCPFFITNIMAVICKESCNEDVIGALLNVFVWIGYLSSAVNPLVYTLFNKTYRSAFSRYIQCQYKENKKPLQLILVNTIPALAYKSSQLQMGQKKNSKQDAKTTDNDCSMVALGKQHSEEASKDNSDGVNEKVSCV

Ki [1]	Ki ([2]; read-out: pKi (converted))	Ki [3]	Ki [4]	Compound	also measured
445 nM	50 nM	–	–	Cn1c(=O)c2c(nc(NCCCN3CCN(c4ccccc4)CC3)n2CCCc2ccccc2)n(C)c1=O	–
–	–	330 nM	26.7 nM	Cn1c(=O)c2c(nc3n2CCCCN3CCCN2CCN(c3cccc(Cl)c3)CC2)n(C)c1=O	–
–	–	486 nM	2.8 nM	COc1ccccc1N1CCN(CCCN2CCCn3c2nc2c3c(=O)n(C)c(=O)n2C)CC1	–
–	–	422 nM	16 nM	Cn1c(=O)c2c(nc3n2CCCN3CCCN2CCN(c3ccccc3)CC2)n(C)c1=O	–
1990 nM	21.5 nM	–	–	Cn1c(=O)c2c(nc3n(CCCCN4CCN(c5ccccc5)CC4)c(=O)ccn23)n(C)c1=O	–
550 nM	48 nM	–	–	COc1ccccc1N1CCN(CCCNc2nc3c(c(=O)n(C)c(=O)n3C)n2Cc2ccccc2)CC1	–
346 nM	10 nM	–	–	Cn1c(=O)c2c(nc(NCCCN3CCN(c4cccc(Cl)c4)CC3)n2CCCc2ccccc2)n(C)c1=O	–
115 nM	1010 nM	–	–	CC(c1ccccc1)n1c(NCCCN2CCN(c3ccccc3)CC2)nc2c1c(=O)n(C)c(=O)n2C (centres undefined)	–
–	–	182 nM	42.9 nM	Cn1c(=O)c2c(nc3n2CCC(=O)N3CCCN2CCN(c3cccc(Cl)c3)CC2)n(C)c1=O	–
–	–	3880 nM	10.4 nM	COc1ccccc1N1CCN(CCCn2c(=O)ccn3c4c(=O)n(C)c(=O)n(C)c4nc23)CC1	–
–	–	258 nM	31 nM	Cn1c(=O)c2c(nc3n2CCCCN3CCCN2CCN(c3ccccc3)CC2)n(C)c1=O	–
–	–	5010 nM	168 nM	COc1ccccc1N1CCN(CCCN2C(=O)CCCn3c2nc2c3c(=O)n(C)c(=O)n2C)CC1	–
–	–	1080 nM	32.8 nM	Cn1c(=O)c2c(nc3n(CCCN4CCN(c5cccc(Cl)c5)CC4)c(=O)ccn23)n(C)c1=O	–
–	–	359 nM	60.3 nM	Cn1c(=O)c2c(nc3n2CCCC(=O)N3CCCN2CCN(c3cccc(Cl)c3)CC2)n(C)c1=O	–
304 nM	8 nM	–	–	COc1ccccc1N1CCN(CCCNc2nc3c(c(=O)n(C)c(=O)n3C)n2CCCc2ccccc2)CC1	–
–	–	8150 nM	36 nM	Cn1c(=O)c2c(nc3n2CCCN3CCCN2CCN(c3ncccn3)CC2)n(C)c1=O	–

Ki [1]	Ki ([2]; read-out: pKi (converted))	Ki [3]	Ki [4]	Compound	also measured
449 nM	220 nM	1010 nM	592 nM	CCOC(=O)Cn1c(NCCCN2CCN(c3ccccc3)CC2)nc2c1c(=O)n(C)c(=O)n2C	–
–	–	28000 nM	42 nM	Cn1c(=O)c2c(nc3n2CCC(=O)N3CCCN2CCN(c3ncccn3)CC2)n(C)c1=O	–
–	–	–	–	Cn1c(=O)c2c(nc(NCCCN3CCN(C(c4ccccc4)c4ccccc4)CC3)n2C)n(C)c1=O	Ratio Ki [5]: 5.1; Ki ([2]; read-out: Ki): 1570 nM; Ki [6]: 308 nM
153 nM	8.79 nM	–	–	Cn1c(=O)c2c(nc3n(CCCCN4CCN(c5cccc(Cl)c5)CC4)c(=O)ccn23)n(C)c1=O	–
–	–	126 nM	25.7 nM	Cn1c(=O)c2c(nc3n2CCCN3CCCN2CCN(c3cccc(Cl)c3)CC2)n(C)c1=O	–
–	–	–	–	Cn1c(=O)c2c(nc(N3CCN(C(c4ccccc4)c4ccccc4)CC3)n2C)n(C)c1=O	Ratio Ki [5]: 0.5; Ki ([2]; read-out: Ki): 10800 nM; Ki [6]: 22500 nM
–	–	38800 nM	474 nM	Cn1c(=O)c2c(nc3n2CCCC(=O)N3CCCN2CCN(c3ncccn3)CC2)n(C)c1=O	–
–	–	562 nM	17.2 nM	COc1ccccc1N1CCN(CCCN2CCCCn3c2nc2c3c(=O)n(C)c(=O)n2C)CC1	–
1070 nM	0.5 nM	–	–	COc1ccccc1N1CCN(CCCCn2c(=O)ccn3c4c(=O)n(C)c(=O)n(C)c4nc23)CC1	–
–	–	–	–	Cn1cnc2c1c(=O)n(CCCN1CCN(C(c3ccccc3)c3ccccc3)CC1)c(=O)n2C	Ratio Ki [5]: 33.9; Ki ([2]; read-out: Ki): 1990 nM; Ki [6]: 58.6 nM
–	–	614 nM	100 nM	CCCCn1c(NCCCN2CCN(c3ccccc3)CC2)nc2c1c(=O)n(C)c(=O)n2C	–
119 nM	210 nM	–	–	Cn1c(=O)c2c(nc(NCCCN3CCN(c4cccc(Cl)c4)CC3)n2CCc2ccccc2)n(C)c1=O	–
–	–	4680 nM	25 nM	Cn1c(=O)c2c(nc3n(CCCN4CCN(c5ccccc5)CC4)c(=O)ccn23)n(C)c1=O	–
–	–	197 nM	385 nM	Cn1c(=O)c2c(nc(NCCCN3CCN(c4ccccc4)CC3)n2C)n(C)c1=O	–
–	–	4220 nM	21.6 nM	COc1ccccc1N1CCN(CCCN2C(=O)CCn3c2nc2c3c(=O)n(C)c(=O)n2C)CC1	–
–	–	243 nM	2.1 nM	Cn1c(=O)c2c(nc3n2CCCN3CCCCN2CCN(c3ccccc3)CC2)n(C)c1=O	–
